Data: PubChem BioAssay (NCI)
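Cultured in 96-well plates, cells were exposed to test compound for 48 hours across five concentrations. TGI: total growth inhibition.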

Tests used:
Test in all cases: growth of human tumour cells (NCI), 48 h
[1] = tested on: A498 renal
[2] = tested on: CAKI-1 renal
[3] = tested on: HCC-2998 colon
[4] = tested on: HCT-116 colon
[5] = tested on: HL-60(TB) leukemia
[6] = tested on: HOP-92 NSCLC
[7] = tested on: K-562 leukemia
[8] = tested on: KM12 colon
[9] = tested on: M14 melanoma
[10] = tested on: MALME-3M melanoma
[11] = tested on: OVCAR-3 ovarian
[12] = tested on: SK-MEL-28 melanoma
[13] = tested on: SK-MEL-5 melanoma
[14] = tested on: SN12C renal
[15] = tested on: SNB-75 CNS
[16] = tested on: TK-10 renal
[17] = tested on: CCRF-CEM leukemia
[18] = tested on: DMS 273 small cell lung
[19] = tested on: SF-539 CNS
[20] = tested on: UACC-257 melanoma

Structure (SMILES)	TGI [1] [µM]	TGI [2] [µM]	TGI [3] [µM]	TGI [4] [µM]	TGI [5] [µM]	TGI [6] [µM]	TGI [7] [µM]	TGI [8] [µM]	TGI [9] [µM]	TGI [10] [µM]	TGI [11] [µM]	TGI [12] [µM]	TGI [13] [µM]	TGI [14] [µM]	TGI [15] [µM]	TGI [16] [µM]	TGI [17] [µM]	TGI [18] [µM]	TGI [19] [µM]	TGI [20] [µM]
C/C(=N/NC(=O)c1ccncc1)C(F)(F)F	> 100	> 100	> 100	> 100	> 100	> 100	> 100	> 100	> 100	> 100	> 100	> 100	> 100	> 100	> 100	> 100	–	–	–	–
CC(=O)CCC#Cc1ccccc1C(=O)C(C)=[N+]=[N-]	> 100	–	> 100	47.8	> 100	> 100	> 100	> 100	> 100	84.1	> 100	> 100	33.1	> 100	69.2	> 100	> 100	90.1	> 100	> 100
COc1ccc(-c2cc(N3CCN(c4ccc(Cl)cc4)CC3)c(C#N)c(=O)o2)cc1	49.4	34.2	> 100	32.7	> 100	> 100	–	> 100	> 100	22.3	–	23.3	31.3	> 100	10.8	37.7	–	34.4	14.6	73.1
COC(=O)/C=C1\SC2(OC1=Nc1ccccc1)C1CC3CC(C1)CC2C3 (stereo not given)	> 100	> 100	–	> 100	> 100	> 100	> 100	> 100	–	–	> 100	> 100	> 100	> 100	> 100	> 100	> 100	–	> 100	> 100
O=C(O)C(Cc1cc(I)c(O)c(I)c1)C1CCCCC1 (stereo not given)	63.7	> 100	76.9	88.7	–	> 100	> 100	> 100	> 100	> 100	38.5	> 100	53.5	> 100	> 100	88.7	> 100	–	–	> 100
CC(C)(C)[Si](C)(C)OCC1OC(n2cnc3c(N)ncnc32)C2OC(=S)OC12 (stereo not given)	> 100	> 100	–	> 100	> 100	> 100	> 100	> 100	> 100	98.3	91.9	> 100	36.1	> 100	> 100	> 100	59	–	–	> 100
O=C1c2cc(Br)ccc2-c2ccc3c4ccc5c6c(ccc(c7ccc1c2c73)c64)C(=O)c1cc(Br)ccc1-5	> 100	> 100	> 100	> 100	> 100	> 100	> 100	> 100	> 100	> 100	> 100	> 100	> 100	> 100	–	> 100	> 100	–	> 100	> 100
CCOC(=O)CC1=N/C(=N/C(=N)N[N+](=O)[O-])SC1	> 100	> 100	> 100	> 100	> 100	> 100	> 100	> 100	> 100	> 100	> 100	> 100	> 100	> 100	> 100	> 100	> 100	> 100	> 100	> 100
NCCCCCC(CCN)SCC1OC(n2cnc3c(N)ncnc32)C(O)C1O (stereo not given)	> 1500	1270	> 1500	> 1500	> 1500	> 1240	> 1500	> 1500	–	> 1500	> 1500	> 1500	> 1500	> 1180	> 1500	–	> 1500	> 1090	> 1240	> 1500
COc1cccc2c1C(=O)c1c(O)c3c(c(O)c1C2=O)C[C@@](O)(C(=O)CO)CC3OC1CC(N(C)CCOCC(OC(C)=O)OC(C)=O)C(O)C(C)O1 (stereo not given in full)	–	> 0.01	> 0.01	–	> 0.01	> 0.01	> 0.01	> 0.01	> 0.01	> 0.01	> 0.01	> 0.01	> 0.01	> 0.01	> 0.01	> 0.01	> 0.01	–	> 0.01	> 0.01
Fc1ccc(Nc2nc(Cl)c3[nH]cnc3n2)cc1Cl	> 100	> 100	> 100	> 100	> 100	> 100	–	> 100	> 100	> 100	> 100	> 100	> 100	> 100	> 100	> 100	> 100	–	> 100	> 100
Nc1ccccc1N	> 100	> 100	> 100	> 100	70.3	> 100	> 100	> 100	> 100	> 100	> 100	> 100	> 100	> 100	> 100	> 100	> 100	> 100	> 100	–
CN1C2CCC1/C(=C/c1cccc3c1OCO3)C(=O)/C2=C\c1cccc2c1OCO2	–	–	> 100	> 100	> 100	98.7	–	> 100	> 100	> 100	> 100	> 100	> 100	> 100	49.7	56.2	> 100	> 100	–	> 100
NC(Cc1ccc(CP(=O)(O)O)cc1)C(=O)O (stereo not given)	–	> 100	> 100	> 100	> 100	> 100	> 100	> 100	> 100	–	> 100	> 100	> 100	> 100	> 100	> 100	> 100	–	> 100	> 100
